{"source": "patent US20100273749A1", "about": "“Method for Treating Dry-Eye Syndrome” (priority 2006, published 2010)", "origin": "cited, not measured here", "tested_on": "ACAT", "conditions": "several animal studies, nonselective ACAT inhibitors", "data": [{"smiles": "CC(C)c1cc(C(C)C)c(CC(=O)NS(=O)(=O)Oc2c(C(C)C)cccc2C(C)C)c(C(C)C)c1", "note": "[avasimibe]", "values": [{"measurement": "reduction of atherosclerotic plaques", "value": "promising reduction of atherosclerotic plaques"}]}, {"smiles": "CCCCCCCCN1CCc2c(C)c(CC(=O)O)c(C)c(NC(=O)C(C)(C)C)c21", "note": "[pactimibe]", "values": [{"measurement": "reduction of atherosclerotic plaques", "value": "promising reduction of atherosclerotic plaques"}]}]}
